In PMC7504387, “Antimicrobial and Amyloidogenic Activity of Peptides Synthesized on the Basis of the Ribosomal S1 Protein from Thermus Thermophilus” (International Journal of Molecular Sciences, 2020):
Converted amounts (≈) assume the structure as drawn. Where a SMILES comes first, the peptide text is derived from it.

Tests used:
[1] = system: T. thermophilus cell culture; format: cell-based
Method: UV-Vis spectra were recorded using a spectrophotometr SF-102 (Akvilon, Moscow, Russia). At the end of the incubation, the density of the medium was estimated by spectrophotometry in a cuvette 10 mm with a total volume of 100 μL. The cuvettes were filled with the peptide water solutions and spectra were collected, using a wavelength from 600 nm. Biological activity of peptides was evaluated by their minimum concentration, which that may inhibit the growth of T. thermophilus bacteria culture. Biological activity of peptides was counted by using the following equation: (1) E=1−A (sample with peptide)/A (sample without peptide), where E is a biological activity of peptides, A is an optical absorption after 24 h incubation with and without peptide.
To construct a dose-effect curve and estimate the quantitative parameters of the curves, the statistical environment R and the drc package were used. The choice of model for describing the functional dependence was determined by several parameters: the logarithm of the maximum value of the likelihood function (logLik), the Akaike information criterion (IC), and the residual variance (Res var).
The algorithm for evaluating antimicrobial activity includes the study of this process and the dose–response relationship. The reaction of a biological object determines a quantitative assessment of the antimicrobial effect, depending not only on the concentration of the peptide, but also on the time of its action. Almost any impact begins with a certain threshold. An important final result of the experiment is the assessment of this threshold—the minimum inhibitory concentration (MIC) at which peptide influence is observed.

[2] = system: ribosomal S1 protein from T. thermophilus; assay: Electron microscopy, coaggregation of peptide with S1 protein
Method: (§1) The presence of amyloid fibrils in the test samples was monitored by transmission electron microscopy (TEM). End-point solutions of peptides were collected and the samples were dissolved in the same solution to 0.2 mg/mL before studying with electron microscopy. A formvar-coated copper grid 400 mesh (Electron Microscopy Sciences, Hatfield, PA, USA) was placed on a 10 μL sample. After 5 min absorption, the grids with the preparation were negatively stained for 1.5–2.0 min with 1% (weight/volume) aqueous solution of uranyl acetate. The excess of the staining agent was removed with filter paper. The preparations were analyzed using a JEM-100C (Jeol, Tokyo, Japan) transmission electron microscope at the accelerating voltage of 80 kV. Images were recorded on the Kodak electron image film (SO-163) at nominal magnification of 40,000–60,000.

[3] = system: T. thermophilus cells; assay: Electron microscopy of intact and peptide-treated T. thermophilus cells; format: cell-based
Method: Along with the spectrophotometric method for determining the antimicrobial activity of peptides, the viability of cells was evaluated using electron microscopy. […] At the given peptide concentration, cells with a typical morphology and flagella were often found. Many protein aggregates were also observed. The absence of an antimicrobial effect with an increase in the concentration of the peptide to 1000 μg/mL, consistent with the spectrophotometry data of the antimicrobial activity of peptides (Figure 3).
as §1

With `CC[C@H](C)[C@H](NC(=O)[C@H](CCC(=O)O)NC(=O)[C@@H](NC(=O)[C@H](Cc1ccccc1)NC(=O)[C@@H](NC(=O)CNC(=O)[C@H](Cc1ccccc1)NC(=O)[C@H](CC(=O)O)NC(=O)[C@@H](NC(=O)[C@@H](NC(=O)CNC(=O)CN(C)C(=O)CNC(=O)CNC(=O)[C@H](CCCNC(=N)N)NC(=O)[C@H](CCCNC(=N)N)NC(=O)[C@H](CCCNC(=N)N)NC(=O)[C@H](CCC(N)=O)NC(=O)[C@H](CCCNC(=N)N)NC(=O)[C@H](CCCNC(=N)N)NC(=O)[C@H](CCCCN)NC(=O)[C@H](CCCCN)NC(=O)[C@@H](N)CCCNC(=N)N)C(C)C)[C@@H](C)O)C(C)C)C(C)C)C(=O)O` [R23I] (HELM PEPTIDE1{R.K.K.R.R.Q.R.R.R.G.G.[Sar].G.V.T.D.F.G.V.F.V.E.I}$$$$V2.0; N-terminus and C-terminus assumed) the “change of optical density of T. thermophilus culture over time” value ([1]; 50 μg/mL in medium, OD 600 nm versus sampling time, DMSO control reached 0.8) was “no increase in the optical density”, the “minimal inhibitory concentration (MIC)” value ([1]; T. thermophilus culture, optical absorption at 600 nm after 24 h incubation, 5 repeats for R23I, 2 for R23T and V10I) was 50 µg/mL (≈ 18.6 µM) and the “concentration at which a pronounced antibacterial effect is observed (no activity below)” value ([1]; T. thermophilus culture, additional concentrations 0.5-250 μg/mL tested) was 40 µg/mL. For the same molecule, the “concentration leading to formation of aggregates in solution and increase in optical density” value ([1]; culture medium, OD 600 nm) was at least 500 µg/mL, the “morphology of peptide/S1 protein mixture by electron microscopy” value ([2]; peptide:S1 protein ratio 1:1) was “both the protein aggregates and fibrils were observed” and the “morphology of peptide/S1 protein mixture by electron microscopy” value ([2]; peptide:S1 protein ratio 5:1 (S1:peptide = 1:5)) was “both the protein aggregates and fibrils were observed”. The “cell morphology by electron microscopy” value ([3]; peptide 50 μg/mL) was “whole cells were practically absent”, the “cell morphology by electron microscopy” value ([3]; peptide 100 μg/mL) was “the number of cells decreased” and the “cell morphology by electron microscopy” value ([3]; peptide 1000 μg/mL) was “did not lead to the morphological changes compared with the control”.
